Measured values taken from US20060211749A1, “Treatment with omega-3 fatty acids and PPAR agonist and/or antagonist and a combination product thereof” (priority 2004, published 2006).

Test: Case of a subject with familial hypertriglyceridemia: blood lipid levels on fenofibrate alone, then on concomitant Omacor and fenofibrate
Type: in vivo, human
Set-up: HDL-Cholesterol level / Non-HDL-Cholesterol level: unit not given here
[1] = same subject, fenofibrate alone vs one month of concomitant therapy

CC(C)OC(=O)C(C)(C)Oc1ccc(C(=O)c2ccc(Cl)cc2)cc1 [Fenofibrate, 2-[4-(4-chlorobenzoyl)phenoxy]-2-methyl-propanoic acid, 1-methylethyl ester]
TG level (person, fenofibrate (Antara 130 mg QD) about 2 weeks, then plus Omacor 4 grams/day QD for one month): 749 mg/dL | HDL-Cholesterol level [1]: 28 | Non-HDL-Cholesterol level [1]: 252 | Total-Cholesterol level [1]: 280 mg/dL
